For data set [1], the system named is pUC18 plasmid. Kind of data set: Photocleavage of pUC18 plasmid DNA assayed by agarose gel electrophoresis. Type of data set: biochemical. The procedure:
FIG. 10A-C. (a) Schematic representations of imaged agarose gel showing the photocleavage of pUC18 plasmid by [{(bpy)2Ru(dpp)}2RhCl2]^5+ in the absence of molecular oxygen. Lane 1 λ molecular weight standard, lanes 2 and 3 plasmid controls, lanes 4 and 6 plasmid incubated at 37° C. (2 h) in the presence of [(bpy)2Ru(dpp)]^2+ and [{(bpy)2Ru(dpp)}2RhCl2]^5+, respectively (1:5metal complex/base pair), lanes 5 and 7 plasmid irradiated at λ≧475 nm for 10 min in the presence of [(bpy)2Ru(dpp)]^2+ and [{(bpY)2Ru(dpp)}2RhCl2]^5+, respectively. (b) Lanes 1 and 2 plasmid controls, lanes 3 and 5 plasmid incubated at 37° C. (3 h) in the presence of [{(bpy)2Ru(bpm)}2RhCl2]^5+ and [{(bpy)2Ru(dpp)}2IrCl2]^5+, respectively, lanes 4 and 6 plasmid irradiated at λ≧475 nm for 10 min in the presence of [{(bpy)2Ru(bpm)}2RhCl2]^5+ and [{(bpy)2Ru(dpp)}2IrCl2]^5+, respectively. (c) Imaged agarose gel showing photocleavage of pBluescript plasmid in the absence of molecular oxygen by [(bpy)2Ru(dpp)RhCl2(dpp)Ru(bpy)2](PF6)5. Lane 1 is the λ molecular weight standard, lane 2 is the control linearized DNA (cut with HindIII) with no metal present, lane 3 is the control circular DNA with no metal present, lane 4 is a 1:5 metal complex/base pair mixture of the plasmid with the metal complex incubated at 37° C. (4 h), and lane 5 is a 1:5 metal complex/base pair mixture of the plasmid with the metal complex photolyzed at 520±5 nm for 4 h. All gels used 0.8% agarose, 90 mM Tris, and 90 mM boric acid buffer (pH=8.2, ionic strength=0.0043 M calculated using the Henderson-Hasselbalch equation).
A, DNA Photocleavage of pUC18 using [{(bpy)2Os(dpp)}2RhCl2](PF6)5:Lane 1 is the λ molecular weight standard, Lane 2 is a plasmid control, Lane 3 is a 1:5 metal complex/base pair mixture of the plasmid with the metal complex incubated at 37° C. for 20 minutes, Lane 4 is a 1:5 metal complex/base pair mixture of the plasmid with the metal complex photolyzed at >475 nm for 20 minutes.
C, DNA Photocleavage of pUC18 using [{(tpy)RuCl(bpm)}2RhCl2](PF6)3:Lane 1 is the λ molecular weight standard, Lane 2 is a plasmid control, Lane 3 is the plasmid alone photolyzed λ>475 nm for 15 mins, Lane 4 is a 1:5 metal complex/base pair mixture of the plasmid with the metal complex incubated at 37° C. for 15 minutes, Lane 5 is a 1:5 metal complex/base pair mixture of the plasmid with the metal complex photolyzed at >475 nm for 15 minutes.
pUC18 and pBluescript were used to probe pbotocleavage of DNA by gel electrophoresis.^14,26,41,42 pUC18 plasmid is 2686 bp (Bayou Biolabs). Irradiation used a 1000 W xenon arc lamp, a water IR filter, and a 475 nm cut off filter. Solutions were 3.5 μM in metal complex and 6.9 mM in phosphate buffer (pH=7) and allowed for ionic association of the cationic metal complexes with DNA. Dexoygenation was accomplished by bubbling with Ar for 30 min prior to the photolysis of the samples in an airtight cell blanketed with Ar.
The photocleavage of DNA by [{(bpy)2Ru(dpp)}2RhCl2]^5+ but not the monometallic ruthenium synthon illustrates the role of the supramolecular architecture, including Rh, on the desired photoreactivity. The cleavage product migrates slightly slower through the gel than native nicked plasmid, and similar results have been observed by Turro.^14 […]

Data set [2] has as its system pBluescript plasmid. As to the kind of experiment: Photocleavage of pBluescript plasmid DNA assayed by agarose gel electrophoresis. It counts as biochemical. The procedure: FIG. 10A-C. […] Lane 1 λ molecular weight standard, lanes 2 and 3 plasmid controls, lanes 4 and 6 plasmid incubated at 37° C. […] (b) Lanes 1 and 2 plasmid controls, lanes 3 and 5 plasmid incubated at 37° C. […] Lane 1 is the λ molecular weight standard, lane 2 is the control linearized DNA (cut with HindIII) with no metal present, lane 3 is the control circular DNA with no metal present, lane 4 is a 1:5 metal complex/base pair mixture of the plasmid with the metal complex incubated at 37° C. (4 h), and lane 5 is a 1:5 metal complex/base pair mixture of the plasmid with the metal complex photolyzed at 520±5 nm for 4 h. All gels used 0.8% agarose, 90 mM Tris, and 90 mM boric acid buffer (pH=8.2, ionic strength=0.0043 M calculated using the Henderson-Hasselbalch equation).
B, DNA Photocleavage of pBluescript using [{(tpy)RuCl(dpp)}2RhCl2](PF6)3:Lane 1 is the λ molecular weight standard, Lane 2 is a plasmid control, Lane 3 is a 1:5 metal complex/base pair mixture of the plasmid with the metal complex incubated at 37° C. for 20 minutes, Lane 4 is a 1:5 metal complex/base pair mixture of the plasmid with the metal complex photolyzed at >475 nm for 20 minutes.
pUC18 and pBluescript were used to probe pbotocleavage of DNA by gel electrophoresis.^14,26,41,42 pUC18 plasmid is 2686 bp (Bayou Biolabs). Irradiation used a 1000 W xenon arc lamp, a water IR filter, and a 475 nm cut off filter. […]

Data set [3] concerns Vero cells. As to the kind of experiment: Photoinduced inhibition of Vero cell replication. Type of data set: cell-based. On the procedure:
Photoinduced inhibition of Vero cell replication by the supramolecular complex [{(bpy)2Ru(dpp)}2RhCl2](PF6)5 was investigated. All experiments were carried out with 0.5 mg/mL of [{(bpy)2Ru(dpp)}2RhCl2](PF6)5 in MEM media, and the results are shown in FIG. 11A. This cell line normally replicates once each 24 hours.
The concentration dependence of photoinduced inhibition of cell replication by the supramolecular complex [{(bpy)2Ru(dpp)}2RhCl2]Cl5 is shown in FIG. 11B. […] This is likely due to photoinduced death of the irradiated cells.

Turning to `F[P-](F)(F)(F)(F)F.F[P-](F)(F)(F)(F)F.F[P-](F)(F)(F)(F)F.F[P-](F)(F)(F)(F)F.F[P-](F)(F)(F)(F)F.[Cl-].[Cl-].[Os+2].[Os+2].[Rh+3].c1ccc(-c2ccccn2)nc1.c1ccc(-c2ccccn2)nc1.c1ccc(-c2ccccn2)nc1.c1ccc(-c2ccccn2)nc1.c1ccc(-c2nccnc2-c2ccccn2)nc1.c1ccc(-c2nccnc2-c2ccccn2)nc1` [[{(bpy)2Os(dpp)}2RhCl2](PF6)5, [(2,2′-bipyridine)2Os(2,3-bis(2-pyridyl)pyrazine)RhCl2(2,3-bis(2-pyridyl)pyrazine)Os(2,2′-bipyridine)2](PF6)5], the DNA photocleavage result in data set [1] (photolyzed at >475 nm for 20 minutes, 1:5 metal complex/base pair (FIG. 12A)) was “efficiently cleave DNA”.

On to `F[P-](F)(F)(F)(F)F.F[P-](F)(F)(F)(F)F.F[P-](F)(F)(F)(F)F.F[P-](F)(F)(F)(F)F.F[P-](F)(F)(F)(F)F.[Cl-].[Cl-].[Rh+3].[Ru+2].[Ru+2].c1ccc(-c2ccccn2)nc1.c1ccc(-c2ccccn2)nc1.c1ccc(-c2ccccn2)nc1.c1ccc(-c2ccccn2)nc1.c1ccc(-c2nccnc2-c2ccccn2)nc1.c1ccc(-c2nccnc2-c2ccccn2)nc1` [[{(bpy)2Ru(dpp)}2RhCl2](PF6)5], for which the DNA photocleavage result in data set [2] (presence of molecular oxygen) is “also observed in the presence of molecular oxygen”; in data set [1] (irradiated λ≧475 nm, presence of molecular oxygen), “also observed in the presence of molecular oxygen”. For the same compound, the “DNA cleavage without irradiation” value in data set [1] (incubated at 37° C. for 2 h, 1:5 metal complex/base pair) is “the plasmid DNA is not cleaved”. Further, the “DNA photocleavage (supercoiled to nicked form)” value in data set [1] (irradiated λ≧475 nm for 10 min, absence of molecular oxygen, 1:5 metal complex/base pair, 3.5 μM complex, phosphate buffer pH 7) was “conversion of the supercoiled DNA to the nicked form is observed”. For the same compound, in data set [3] (Vero cells, no illumination, 0.5 mg/mL), the “Toxicity to cells in the dark” value was “not toxic to cells in the dark”. Besides, in data set [3] (incubated in the dark, without illumination, MEM media (FIG. 11A)), the “Vero cell replication, complex alone” value was “did not impact replication”. Moreover, the “Photoinduced inhibition of Vero cell replication” value in data set [3] (photolysis at λ>475 nm after incubation with 0.5 mg/mL complex in MEM media (FIG. 11A)) was “greatly inhibits cell replication”.

Consider `F[P-](F)(F)(F)(F)F.F[P-](F)(F)(F)(F)F.F[P-](F)(F)(F)(F)F.[Cl-].[Cl-].[Cl-].[Cl-].[Rh+3].[Ru+2].[Ru+2].c1ccc(-c2cccc(-c3ccccn3)n2)nc1.c1ccc(-c2cccc(-c3ccccn3)n2)nc1.c1ccc(-c2nccnc2-c2ccccn2)nc1.c1ccc(-c2nccnc2-c2ccccn2)nc1` [[{(tpy)RuCl(dpp)}2RhCl2](PF6)3, [(2,2′:6′,2″-terpyridine) RuCl(2,3-bis(2-pyridyl)pyrazine)RhCl2(2,3-bis(2-pyridyl)pyrazine)RuCl(2,2′:6′,2″-terpyridine)](PF6)3], for which the DNA photocleavage result in data set [2] (photolyzed at >475 nm for 20 minutes, 1:5 metal complex/base pair (FIG. 12B)) is on record as “efficiently cleave DNA”.

For “[(2,2′:6′,2″-terpyridine)RuCl(2,2′-bipyridimidine)RhCl2(2,2′-bipyridimidine)RuCl(2,2′:6′,2″-terpyridine)](PF6)3 [[{(tpy)RuCl(bpm)}2RhCl2](PF6)3]”, the DNA photocleavage result in data set [1] (photolyzed at >475 nm for 15 minutes, 1:5 metal complex/base pair (FIG. 12C)) is listed as “efficiently cleave DNA”.

Source of the values: patent US7612057B2, “Supramolecular complexes as photoactivated DNA cleavage agents” (Virginia Tech Intellectual Properties, Inc., priority 2002, dated 2009).
